How the values were obtained:
[1] = molecular target: recombinant human Cathepsin K (Homo sapiens (Human), UniProt P43235); test: Inhibition of human Cathepsin K; type: biochemical; details: substrate Z-Gly-Pro-Arg-AMC
How it was run: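 Fluorogenic Z-Gly-Pro-Arg-AMC cleavage, 60 min at room temperature, after a 10 min enzyme–compound preincubation (enzyme 2 ng/μL; compound 0.1 nM–100 μM; 1% DMSO). Buffer pH 5.5 with sodium acetate, EDTA and L-cysteine; procathepsin first activated 30 min at pH 3.5. E64 (1 μM) stop; IC50 derived from percent of vehicle signal minus background (Ex 360/Em 460 nm).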

[2] = Determination of metabolic stability with human liver microsomes; details: pooled human liver microsomes; for half-life at 1 μM: human, pH 7.6
[3] = molecular target: recombinant human DPPI (Cathepsin C) (Homo sapiens (Human), UniProt P53634); test: Inhibition of human DPPI (Cathepsin C); type: biochemical; details: substrate Gly-Arg-AMC
Sequence of recombinant human DPPI (Cathepsin C) (P53634 231-394): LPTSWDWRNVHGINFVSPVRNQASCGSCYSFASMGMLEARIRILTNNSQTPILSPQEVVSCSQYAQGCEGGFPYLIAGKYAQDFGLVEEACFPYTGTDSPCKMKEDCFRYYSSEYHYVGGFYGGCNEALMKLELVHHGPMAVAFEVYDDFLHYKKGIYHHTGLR
Sequence of recombinant human DPPI (Cathepsin C) (P53634 395-463): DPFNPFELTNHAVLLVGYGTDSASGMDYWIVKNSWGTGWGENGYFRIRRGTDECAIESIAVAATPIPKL
Sequence of recombinant human DPPI (Cathepsin C) (P53634 25-134): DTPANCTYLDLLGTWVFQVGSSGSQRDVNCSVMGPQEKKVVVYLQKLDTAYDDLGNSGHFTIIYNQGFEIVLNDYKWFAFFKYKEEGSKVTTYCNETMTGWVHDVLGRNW
How it was run: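 Fluorescence read after 30 min room-temperature turnover of 50 μM (final) substrate by recombinant human cathepsin C, pH 6.0 MES/NaCl/DTT/BSA buffer, quenched by Gly-Phe-DMK (1 μM final). Activity as percent of vehicle after background subtraction, used for IC50.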

Sequence of recombinant human Cathepsin K (P43235 115-329): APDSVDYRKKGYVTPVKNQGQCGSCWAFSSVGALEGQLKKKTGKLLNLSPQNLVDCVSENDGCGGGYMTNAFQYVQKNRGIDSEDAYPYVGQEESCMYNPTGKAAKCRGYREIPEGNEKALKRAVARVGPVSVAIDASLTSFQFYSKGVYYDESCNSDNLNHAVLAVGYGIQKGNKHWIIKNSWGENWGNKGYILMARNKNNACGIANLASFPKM

Row | Structure (SMILES) | IC50 [1] [µM] | half-life at 1 μM [2] [h] | IC50 [3] [µM] | In vitro stability in human liver microsome incubations t½ ([2]; 1 μM test compound, 37° C., NADPH) [h]
1 | CN1C(=O)C(=O)c2ccc(-c3ccc(C[C@@H](C#N)NC(=O)[C@H]4N[C@@H]5CC[C@H]4C5)c(F)c3)cc21 [Example 10] | 2.7 | > 2.17 | 0.0015 | 
2 | CS(=O)(=O)c1cc(-c2ccc(C[C@@H](C#N)NC(=O)[C@H]3N[C@@H]4CC[C@H]3C4)c(F)c2)ccc1C#N [Example 14] | 2.7 | > 2.17 | 0.002 | 
3 | CN1C(=O)Cc2ccc(-c3ccc(CC(C#N)NC(=O)[C@H]4N[C@@H]5CC[C@H]4C5)c(F)c3)cc21 (stereo partly drawn) [Example 15] | 3.2 |  | 0.002 | 2.17
4 | CS(=O)(=O)c1cc(-c2ccc(CC(C#N)NC(=O)[C@H]3N[C@@H]4CC[C@H]3C4)c(F)c2)ccc1C#N (stereo partly drawn) [Example 19] | 5.4 | > 2.17 | 0.0028 | 
5 | N#C[C@H](Cc1ccc(-c2cnn(CC3CCOC3)c2)cc1F)NC(=O)[C@H]1N[C@@H]2CC[C@H]1C2 (stereo partly drawn) [Example 21] | 4.9 | > 2.17 | 0.0031 | 
6 | N#CC(Cc1ccc(-c2ccc3c(c2)NC(=O)C3)cc1F)NC(=O)[C@H]1N[C@@H]2CC[C@H]1C2 (stereo partly drawn) [Example 22] | 3.2 | > 2.17 | 0.0033 | 
7 | CN1C(=O)Cc2ccc(-c3ccc(C[C@@H](C#N)NC(=O)[C@H]4N[C@@H]5CC[C@H]4C5)c(F)c3F)cc21 [Example 24] | 13.3 | 1.83 | 0.0037 | 
8 | N#C[C@H](Cc1ccc(-c2cnn(CC3CCCCO3)c2)cc1F)NC(=O)[C@H]1N[C@@H]2CC[C@H]1C2 (stereo partly drawn) [Example 28] | 2.7 | > 2.17 | 0.0041 | 
9 | CN1C(=O)Cc2ccc(-c3cc(F)c(C[C@@H](C#N)NC(=O)[C@H]4N[C@@H]5CC[C@H]4C5)cc3F)cc21 [Example 31] | 7.3 | 1.5 | 0.0043 | 

Stronger by IC50 [1], values ahead:

Row | IC50 [1] [µM] | half-life at 1 μM [2] [h] | IC50 [3] [µM] | In vitro stability in human liver microsome incubations t½ ([2]; 1 μM test compound, 37° C., NADPH) [h] | Structure (SMILES)
10 | 2.6 | > 2.17 | 0.0014 |  | CS(=O)(=O)c1cccc(-c2ccc(C[C@@H](C#N)NC(=O)[C@H]3N[C@@H]4CC[C@H]3C4)c(F)c2)c1 [Example 4, (1S,2S,4R)—N-[(1S)-1-cyano-2-[2-fluoro-4-(3-methylsulfonylphenyl)phenyl]ethyl]-3-azabicyclo[2.2.1]heptane-2-carboxamide]
11 | 2.6 | 1.53 | 0.004 |  | N#C[C@H](Cc1ccc(-n2cc(-c3ccc4[nH]ccc4c3)nn2)cc1F)NC(=O)[C@H]1N[C@@H]2CC[C@H]1C2 [Example 5, (1S,2S,4R)—N-[(1S)-1-cyano-2-[2-fluoro-4-[4-(1H-indol-5-yl)triazol-1-yl]phenyl]ethyl]-3-azabicyclo[2.2.1]heptane-2-carboxamide]
12 | 2.5 | > 2.17 | 0.0107 |  | CN1CCN(c2ccc(C[C@@H](C#N)NC(=O)[C@H]3N[C@@H]4CC[C@H]3C4)c(F)c2)CC1 [Example 6, (1S,2S,4R)—N-[(1S)-1-cyano-2-[2-fluoro-4-(4-methylpiperazin-1-yl)phenyl]ethyl]-3-azabicyclo[2.2.1]heptane-2-carboxamide]
13 | 2.1 | 0.95 | 0.0007 |  | N#C[C@H](Cc1ccc(-c2ccc3c(c2)COC3=O)cc1F)NC(=O)[C@H]1N[C@@H]2CC[C@H]1C2 [Example 3, (1S,2S,4R)—N-[(1S)-1-cyano-2-[2-fluoro-4-(1-oxo-3H-isobenzofuran-5-yl)phenyl]ethyl]-3-azabicyclo[2.2.1]heptane-2-carboxamide]
14 | 2.1 | > 2.17 | 0.0019 |  | CS(=O)(=O)c1ccc(-c2ccc(C[C@@H](C#N)NC(=O)[C@H]3N[C@@H]4CC[C@H]3C4)c(F)c2)cc1F [Example 12]
15 | 2.1 | > 2.17 | 0.0026 |  | CS(=O)(=O)c1ccc(-c2ccc(C[C@@H](C#N)NC(=O)[C@H]3N[C@@H]4CC[C@H]3C4)c(F)c2)cc1 [Example 16]
16 | 1.4 | > 2.17 | 0.0042 |  | N#C[C@H](Cc1ccc(-c2ccc3c(c2)NC(=O)C3)cc1F)NC(=O)[C@H]1N[C@@H]2CC[C@H]1C2 [Example 29]

Source: US8987249B2, “Substituted 2-Aza-bicyclo[2.2.1]heptane-3-carboxylic acid (benzyl-cyano-methyl)-amides inhibitors of Cathepsin C” (Boehringer Ingelheim International GmbH, priority 2013, dated 2015)
